Laboratory results from ChEMBL document CHEMBL2413072, “Synthesis and in vitro anticancer studies of novel C-2 arylidene congeners of lantadenes” (2013).

How the values were obtained:
Assay type in all cases: functional
[1] = test system: NCI-H23; test: Growth inhibition of human NCI-H23 cells by sulforhodamine B assay
[2] = test system: SK-MEL-28; test: Growth inhibition of human SK-MEL-28 cells assessed as cell growth at 10^-6 M by sulforhodamine B assay; details: read-out: Activity
[3] = test system: SK-MEL-28; test: Growth inhibition of human SK-MEL-28 cells assessed as cell growth at 10^-8 M by sulforhodamine B assay; details: read-out: Activity
[4] = test system: IGROV-1; test: Growth inhibition of human IGROV1 cells assessed as cell growth at 10^-4 M by sulforhodamine B assay; details: read-out: Activity
[5] = test system: UACC-257; test: Growth inhibition of human UACC257 cells assessed as cell growth at 10^-7 M by sulforhodamine B assay; details: read-out: Activity
[6] = test system: PC-3; test: Growth inhibition of human PC3 cells by sulforhodamine B assay
[7] = test system: SF-295; test: Growth inhibition of human SF295 cells assessed as cell growth at 10^-6 M by sulforhodamine B assay; details: read-out: Activity
[8] = test system: M14; test: Growth inhibition of human M14 cells assessed as cell growth at 10^-8 M by sulforhodamine B assay; details: read-out: Activity
[9] = test system: DU-145; test: Growth inhibition of human DU145 cells assessed as cell growth at 10^-7 M by sulforhodamine B assay; details: read-out: Activity
[10] = test system: HCT-15; test: Growth inhibition of human HCT15 cells assessed as cell growth at 10^-6 M by sulforhodamine B assay; details: read-out: Activity
[11] = test system: CCRF-CEM; test: Growth inhibition of human CCRF-CEM cells assessed as cell growth at 10^-4 M by sulforhodamine B assay; details: read-out: Activity
[12] = test system: SF-295; test: Growth inhibition of human SF295 cells assessed as cell growth at 10^-4 M by sulforhodamine B assay; details: read-out: Activity
[13] = test system: SK-MEL-2; test: Growth inhibition of human SK-MEL-2 cells assessed as cell growth at 10^-8 M by sulforhodamine B assay; details: read-out: Activity
[14] = test system: A498; test: Growth inhibition of human A498 cells assessed as cell growth at 10^-4 M by sulforhodamine B assay; details: read-out: Activity
[15] = test system: BT-549; test: Growth inhibition of human BT549 cells assessed as cell growth at 10^-7 M by sulforhodamine B assay; details: read-out: Activity
[16] = test system: SF-539; test: Growth inhibition of human SF539 cells assessed as cell growth at 10^-7 M by sulforhodamine B assay; details: read-out: Activity
[17] = test system: SNB-75; test: Growth inhibition of human SNB75 cells by sulforhodamine B assay
[18] = test system: UACC-257; test: Growth inhibition of human UACC257 cells assessed as cell growth at 10^-8 M by sulforhodamine B assay; details: read-out: Activity
[19] = test system: HOP-92; test: Growth inhibition of human HOP92 cells assessed as cell growth at 10^-8 M by sulforhodamine B assay; details: read-out: Activity
[20] = test system: NCI-H322M; test: Growth inhibition of human NCI-H322M cells by sulforhodamine B assay
[21] = test system: BT-549; test: Growth inhibition of human BT549 cells by sulforhodamine B assay
[22] = test system: UACC-62; test: Growth inhibition of human UACC62 cells assessed as cell growth at 10^-7 M by sulforhodamine B assay; details: read-out: Activity
[23] = test system: OVCAR-3; test: Growth inhibition of human OVCAR3 cells by sulforhodamine B assay
[24] = test system: KM12; test: Growth inhibition of human KM12 cells by sulforhodamine B assay
[25] = test system: CCRF-CEM; test: Growth inhibition of human CCRF-CEM cells by sulforhodamine B assay
[26] = test system: HT-29; test: Growth inhibition of human HT-29 cells assessed as cell growth at 10^-4 M by sulforhodamine B assay; details: read-out: Activity
[27] = test system: SK-OV-3; test: Growth inhibition of human SKOV3 cells assessed as cell growth at 10^-8 M by sulforhodamine B assay; details: read-out: Activity
[28] = test system: OVCAR-5; test: Growth inhibition of human OVCAR5 cells assessed as cell growth at 10^-7 M by sulforhodamine B assay; details: read-out: Activity
[29] = test system: A498; test: Growth inhibition of human A498 cells assessed as cell growth at 10^-7 M by sulforhodamine B assay; details: read-out: Activity
[30] = test system: IGROV-1; test: Growth inhibition of human IGROV1 cells assessed as cell growth at 10^-7 M by sulforhodamine B assay; details: read-out: Activity
[31] = test system: 786-0; test: Growth inhibition of human 786-0 cells assessed as cell growth at 10^-6 M by sulforhodamine B assay; details: read-out: Activity
[32] = test system: SK-MEL-28; test: Growth inhibition of human SK-MEL-28 cells assessed as cell growth at 10^-7 M by sulforhodamine B assay; details: read-out: Activity
[33] = test system: A549; test: Growth inhibition of human A549/ATCC cells assessed as cell growth at 10^-7 M by sulforhodamine B assay; details: read-out: Activity
[34] = test system: U-251; test: Growth inhibition of human U251 cells assessed as cell growth at 10^-8 M by sulforhodamine B assay; details: read-out: Activity
[35] = test system: CCRF-CEM; test: Growth inhibition of human CCRF-CEM cells assessed as cell growth at 10^-8 M by sulforhodamine B assay; details: read-out: Activity
[36] = test system: CAKI-1; test: Growth inhibition of human CAKI-1 cells by sulforhodamine B assay
[37] = test system: SK-MEL-2; test: Growth inhibition of human SK-MEL-2 cells assessed as cell growth at 10^-6 M by sulforhodamine B assay; details: read-out: Activity
[38] = test system: COLO 205; test: Growth inhibition of human COLO205 cells assessed as cell growth at 10^-7 M by sulforhodamine B assay; details: read-out: Activity
[39] = test system: OVCAR-4; test: Growth inhibition of human OVCAR4 cells assessed as cell growth at 10^-4 M by sulforhodamine B assay; details: read-out: Activity
[40] = read-out: LC50 (the source's name)
[41] = read-out: pLC50 (the source's name) (converted)

C/C=C(/C)C(=O)O[C@@H]1CC(C)(C)C[C@H]2C3=CC[C@@H]4[C@@]5(C)CCC(=O)C(C)(C)[C@@H]5CC[C@@]4(C)[C@]3(C)CC[C@@]12C(=O)O [LANTADENE A]
GI50 ([1]; read-out: GI50): 4.55 µM
CC50 [1, 40]: > 100 µM
TGI ([1]; read-out: TGI): > 100 µM
GI50 ([1]; read-out: pGI50 (converted)): 4.57 µM
CC50 [1, 41]: > 100 µM
TGI ([1]; read-out: pTGI (converted)): > 100 µM
growth at 1 µM [2]: 95%
growth at 0.01 µM [3]: 97%
growth at 100 µM [4]: 30%
growth at 0.1 µM [5]: 93%
GI50 ([6]; read-out: GI50): 2.53 µM
CC50 [6, 40]: > 100 µM
TGI ([6]; read-out: TGI): > 100 µM
GI50 ([6]; read-out: pGI50 (converted)): 2.51 µM
CC50 [6, 41]: > 100 µM
TGI ([6]; read-out: pTGI (converted)): > 100 µM
growth at 1 µM [7]: 88%
growth at 0.01 µM [8]: 96%
growth at 0.1 µM [9]: 107%
growth at 1 µM [10]: 87%
growth at 100 µM [11]: 9%
growth at 100 µM [12]: -6%
growth at 0.01 µM [13]: 111%
growth at 100 µM [14]: -20%
growth at 0.1 µM [15]: 95%
growth at 0.1 µM [16]: 103%
GI50 ([17]; read-out: GI50): 14.2 µM
CC50 [17, 40]: > 100 µM
TGI ([17]; read-out: TGI): > 100 µM
GI50 ([17]; read-out: pGI50 (converted)): 14.1 µM
CC50 [17, 41]: > 100 µM
TGI ([17]; read-out: pTGI (converted)): > 100 µM
growth at 0.01 µM [18]: 96%
growth at 0.01 µM [19]: 87%
GI50 ([20]; read-out: GI50): 3.94 µM
LC50 (50% lethal concentration) ([20]; read-out: LC50): > 100 µM
TGI ([20]; read-out: TGI): > 100 µM
GI50 ([20]; read-out: pGI50 (converted)): 3.98 µM
LC50 (50% lethal concentration) ([20]; read-out: pLC50 (converted)): > 100 µM
TGI ([20]; read-out: pTGI (converted)): > 100 µM
GI50 ([21]; read-out: GI50): 4.73 µM
CC50 [21, 40]: > 100 µM
TGI ([21]; read-out: TGI): > 100 µM
GI50 ([21]; read-out: pGI50 (converted)): 4.68 µM
CC50 [21, 41]: > 100 µM
TGI ([21]; read-out: pTGI (converted)): > 100 µM
growth at 0.1 µM [22]: 85%
GI50 ([23]; read-out: GI50): 5.89 µM
CC50 [23, 40]: > 100 µM
TGI ([23]; read-out: TGI): > 100 µM
GI50 ([23]; read-out: pGI50 (converted)): 5.89 µM
CC50 [23, 41]: > 100 µM
TGI ([23]; read-out: pTGI (converted)): > 100 µM
GI50 ([24]; read-out: GI50): 3.52 µM
LC50 (50% net cell kill) ([24]; read-out: LC50): > 100 µM
TGI ([24]; read-out: TGI): > 100 µM
GI50 ([24]; read-out: pGI50 (converted)): 3.55 µM
LC50 (50% net cell kill) ([24]; read-out: pLC50 (converted)): > 100 µM
TGI ([24]; read-out: pTGI (converted)): > 100 µM
GI50 ([25]; read-out: GI50): 3.48 µM
CC50 [25, 40]: > 100 µM
TGI ([25]; read-out: TGI): > 100 µM
GI50 ([25]; read-out: pGI50 (converted)): 3.47 µM
CC50 [25, 41]: > 100 µM
TGI ([25]; read-out: pTGI (converted)): > 100 µM
growth at 100 µM [26]: 19%
growth at 0.01 µM [27]: 103%
growth at 0.1 µM [28]: 100%
growth at 0.1 µM [29]: 86%
growth at 0.1 µM [30]: 111%
growth at 1 µM [31]: 93%
growth at 0.1 µM [32]: 95%
growth at 0.1 µM [33]: 90%
growth at 0.01 µM [34]: 98%
growth at 0.01 µM [35]: 98%
GI50 ([36]; read-out: GI50): 3.93 µM
CC50 [36, 40]: > 100 µM
TGI ([36]; read-out: TGI): > 100 µM
GI50 ([36]; read-out: pGI50 (converted)): 3.89 µM
CC50 [36, 41]: > 100 µM
TGI ([36]; read-out: pTGI (converted)): > 100 µM
growth at 1 µM [37]: 108%
growth at 0.1 µM [38]: 110%
growth at 100 µM [39]: 29%
